Here are results for 18 molecules from PubChem BioAssay AID248 (DTP/NCI, 2004).

Several values for one entry are separate records, joined by “and”; a condition that tells them apart may be missing. Identical values can stand only once. Toxic doses and inconclusive results are not listed.

For the assay, the system named is L1210 leukemia ip in BDF1 mice, survival T/C. Put plainly: NCI In Vivo Anticancer Drug Screen. Data for tumor model L1210 Leukemia (intraperitoneal) in B6D2F1 (BDF1) mice. Particulars: endpoint: mean survival time, higher = longer survival. An outline of the steps:
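Value reflects the ratio of survival in compound-treated mice to survival in vehicle-treated controls, with both groups carrying the same transplanted tumor.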

Setting [1] is: dose: 50.0 mg/kg/injection, schedule: Q01DX001 (ip), vehicle: saline.
[2] abbreviates: dose: 100.0 mg/kg/injection, schedule: Q01DX001 (ip), vehicle: saline.
[3] abbreviates: dose: 200.0 mg/kg/injection, schedule: Q01DX001 (ip), vehicle: saline.
Where [4] appears, read: dose: 400.0 mg/kg/injection, schedule: Q01DX001 (ip), vehicle: saline.
The mark [5] stands for this setting: dose: 100.0 mg/kg/injection, schedule: Q01DX009 (ip), vehicle: Klucel (hydroxypropylcellulose) (HPC).
Setting [6] is: dose: 100.0 mg/kg/injection, schedule: Q04DX003 (ip), vehicle: Klucel (hydroxypropylcellulose) (HPC).
Setting [7] is: dose: 200.0 mg/kg/injection, schedule: Q01DX009 (ip), vehicle: Klucel (hydroxypropylcellulose) (HPC).
The mark [8] stands for this setting: dose: 200.0 mg/kg/injection, schedule: Q04DX003 (ip), vehicle: Klucel (hydroxypropylcellulose) (HPC).
Setting [9] is: dose: 400.0 mg/kg/injection, schedule: Q01DX009 (ip), vehicle: Klucel (hydroxypropylcellulose) (HPC).
The mark [10] stands for this setting: dose: 400.0 mg/kg/injection, schedule: Q04DX003 (ip), vehicle: Klucel (hydroxypropylcellulose) (HPC).
Where [11] appears, read: dose: 100.0 mg/kg/injection, schedule: Q01DX001 (ip), vehicle: Klucel (hydroxypropylcellulose) (HPC).
The mark [12] stands for this setting: dose: 200.0 mg/kg/injection, schedule: Q01DX001 (ip), vehicle: Klucel (hydroxypropylcellulose) (HPC).
Setting [13] is: dose: 400.0 mg/kg/injection, schedule: Q01DX001 (ip), vehicle: Klucel (hydroxypropylcellulose) (HPC).
The mark [14] stands for this setting: dose: 100.0 mg/kg/injection, schedule: Q04DX003 (ip), vehicle: saline with Tween-80.

Take `CC(OCCO)C1CCC2C3CCC4=CC(=O)CCC4(C)C3C(O)C(C)C12C` (centres undefined): the T/C runs as follows: (dose: 50.0 mg/kg/injection, schedule: Q01DX001 (sc), vehicle: steriod suspending solution) 102 % of control; (dose: 100.0 mg/kg/injection, schedule: Q01DX001 (sc), vehicle: steriod suspending solution) 100 % of control; (dose: 200.0 mg/kg/injection, schedule: Q01DX001 (sc), vehicle: steriod suspending solution) 110 % of control; (dose: 400.0 mg/kg/injection, schedule: Q01DX001 (sc), vehicle: steriod suspending solution) 102 % of control.
For `CCOC1=CCCCC1`, the T/C under setting [1] was 101 % of control, the T/C under setting [2] is 103 % of control, the T/C under setting [3] was 103 % of control and the T/C under setting [4] is 101 % of control.
As to `O=C(O)CC(C(=O)O)(c1c[nH]c2ccccc12)c1c[nH]c2ccccc12`, the T/C runs as follows: (dose: 75.0 mg/kg/injection, schedule: Q01DX001 (ip), vehicle: carboxymethylcellulose (CMC)) 89 % of control; (dose: 150.0 mg/kg/injection, schedule: Q01DX001 (ip), vehicle: carboxymethylcellulose (CMC)) 93 % of control; (dose: 300.0 mg/kg/injection, schedule: Q01DX001 (ip), vehicle: carboxymethylcellulose (CMC)) 90 % of control.
`O=C(Oc1ccccc1Cl)c1ccc(Cl)cc1Cl`: the T/C is 91 % of control under setting [5]; 93 % of control under setting [6]; 90 % of control under setting [7]; 96 % of control under setting [8]; 91 % of control under setting [9]; 98 % of control under setting [10].
As for `O=C1C(NCCO)=C(N2CC2)C(=O)C(NCCO)=C1N1CC1`, the T/C runs as follows: (dose: 0.04 mg/kg/injection, schedule: Q01DX009 (ip), vehicle: saline) 115 % of control; (dose: 0.09 mg/kg/injection, schedule: Q01DX009 (ip), vehicle: saline) 111 % of control; (dose: 0.09 mg/kg/injection, schedule: Q04DX003 (ip), vehicle: saline) 121 % of control; (dose: 0.18 mg/kg/injection, schedule: Q01DX009 (ip), vehicle: saline) 159 % of control and 164 % of control and 195 % of control; (dose: 0.18 mg/kg/injection, schedule: Q04DX003 (ip), vehicle: saline) 120 % of control; (dose: 0.19 mg/kg/injection, schedule: Q01DX009 (ip), vehicle: saline) 153 % of control. The T/C is 103 % of control (dose: 0.37 mg/kg/injection, schedule: Q01DX001 (ip), vehicle: saline); 157 % of control and 164 % of control and 212 % of control (dose: 0.37 mg/kg/injection, schedule: Q01DX009 (ip), vehicle: saline); 155 % of control and 157 % of control (dose: 0.37 mg/kg/injection, schedule: Q04DX003 (ip), vehicle: saline); 184 % of control (dose: 0.38 mg/kg/injection, schedule: Q01DX009 (ip), vehicle: saline); 170 % of control and 231 % of control (dose: 0.75 mg/kg/injection, schedule: Q04DX003 (ip), vehicle: saline); 275 % of control (dose: 1.5 mg/kg/injection, schedule: Q01DX001 (ip), vehicle: saline). Moreover, the T/C (dose: 1.5 mg/kg/injection, schedule: Q04DX003 (ip), vehicle: saline) is 160 % of control and 164 % of control and 186 % of control; the T/C (dose: 1.56 mg/kg/injection, schedule: Q04DX003 (ip), vehicle: saline) is 103 % of control; the T/C (dose: 3.0 mg/kg/injection, schedule: Q04DX003 (ip), vehicle: saline) was 104 % of control and 115 % of control.
For the molecule `CC1(C)OC(=O)C(C(N)=O)C1c1ccc(Cl)cc1` (centres undefined), the T/C by setting is: under setting [2], 103 % of control; under setting [3], 104 % of control; under setting [4], 103 % of control.
As for `CCCCCCCCCN(CCCCCCCCC)CC(O)c1ccc2cc(Br)c3ccccc3c2c1` (centres undefined), the T/C is 98 % of control (dose: 222.0 mg/kg/injection, schedule: Q01DX Z (ip), vehicle: methylcellulose (MC)); 95 % of control (dose: 333.0 mg/kg/injection, schedule: Q01DX Z (ip), vehicle: methylcellulose (MC)); 92 % of control (dose: 500.0 mg/kg/injection, schedule: Q01DX Z (ip), vehicle: methylcellulose (MC)).
For `COc1ccc(C(=O)C(O)O)cc1`, the T/C was 100 % of control (dose: 100.0 mg/kg/injection, schedule: Q01DX009 (ip), vehicle: saline); 103 % of control (dose: 100.0 mg/kg/injection, schedule: Q04DX003 (ip), vehicle: saline); 96 % of control (dose: 200.0 mg/kg/injection, schedule: Q01DX009 (ip), vehicle: saline); 98 % of control (dose: 200.0 mg/kg/injection, schedule: Q04DX003 (ip), vehicle: saline); 112 % of control (dose: 400.0 mg/kg/injection, schedule: Q01DX009 (ip), vehicle: saline); 103 % of control (dose: 400.0 mg/kg/injection, schedule: Q04DX003 (ip), vehicle: saline).
For `O=C(Nc1cccc(F)c1)Nc1cc(Cl)ccc1Cl`, the T/C is 96 % of control and 86 % of control under setting [5]; 102 % of control under setting [7]; 95 % of control and 92 % of control under setting [9].
Take `OCC1OC(n2cnc3ccccc32)C(O)C1O` (centres undefined): the T/C by setting is: under setting [2], 100 % of control; under setting [3], 100 % of control; under setting [4], 95 % of control.
Take `O=C(O)C1CCCN1` (centres undefined): the T/C is 100 % of control under setting [2], 87 % of control under setting [3] and 97 % of control under setting [4].
On to `COc1cc(C)c2cccc(OC)c2n1`, for which the T/C is 114 % of control under setting [5]; 105 % of control under setting [6]; 108 % of control under setting [7]; 90 % of control under setting [8]; 98 % of control under setting [9]; 94 % of control under setting [10].
Turning to `O=C1C=CC(=O)N1c1cccc2c(N3C(=O)C=CC3=O)cccc12`, the T/C was 89 % of control (dose: 11.1 mg/kg/injection, schedule: Q01DX Z (ip), vehicle: methylcellulose (MC)); 95 % of control (dose: 16.6 mg/kg/injection, schedule: Q01DX Z (ip), vehicle: methylcellulose (MC)); 104 % of control (dose: 25.0 mg/kg/injection, schedule: Q01DX Z (ip), vehicle: methylcellulose (MC)).
`O=C(CC(=O)c1ccccc1)CC(=O)c1ccccc1`: the T/C is 97 % of control under setting [11], 100 % of control under setting [12] and 94 % of control under setting [13].
On to `O=C(Nc1ccc(O)cc1)OCc1ccccc1`, for which the T/C was 105 % of control (dose: 45.0 mg/kg/injection, schedule: Q04DX003 (ip), vehicle: Klucel (hydroxypropylcellulose) (HPC)); 102 % of control (dose: 50.0 mg/kg/injection, schedule: Q01DX009 (ip), vehicle: Klucel (hydroxypropylcellulose) (HPC)); 91 % of control (dose: 50.0 mg/kg/injection, schedule: Q04DX003 (ip), vehicle: Klucel (hydroxypropylcellulose) (HPC)); 101 % of control (dose: 65.0 mg/kg/injection, schedule: Q04DX003 (ip), vehicle: Klucel (hydroxypropylcellulose) (HPC)); 109 % of control under setting [11]; 104 % of control under setting [5]. Moreover, the T/C under setting [6] was 95 % of control; the T/C under setting [12] is 106 % of control; the T/C under setting [7] is 96 % of control; the T/C under setting [8] was 105 % of control and 106 % of control; the T/C under setting [13] was 97 % of control; the T/C under setting [9] was 94 % of control. Besides, under setting [10], the T/C was 98 % of control.
For `COC1OCCCC1OC(=O)c1ccccc1` (centres undefined), the T/C is, setting by setting: under setting [1], 109 % of control; under setting [2], 103 % of control; under setting [3], 105 % of control; under setting [4], 94 % of control.
Turning to `O=C(OCC(O)C1OC(c2ccccc2)OC1C(O)COC(=O)c1ccccc1)c1ccccc1` (centres undefined), the T/C is 102 % of control (dose: 50.0 mg/kg/injection, schedule: Q04DX003 (ip), vehicle: saline with Tween-80); 92 % of control and 91 % of control under setting [14]; 105 % of control (dose: 200.0 mg/kg/injection, schedule: Q04DX003 (ip), vehicle: saline with Tween-80); 89 % of control (dose: 400.0 mg/kg/injection, schedule: Q04DX003 (ip), vehicle: saline with Tween-80).
Regarding `COc1cccc(/C=N/NC(=O)C[n+]2ccccc2)c1OC`, the T/C by setting is: (dose: 25.0 mg/kg/injection, schedule: Q01DX009 (ip), vehicle: saline with Tween-80) 98 % of control; (dose: 50.0 mg/kg/injection, schedule: Q01DX009 (ip), vehicle: saline with Tween-80) 106 % of control; under setting [14], 113 % of control.
